Assay results: patent US12286442B2, “Methods and materials for increasing transcription factor eb polypeptide levels” (University of Pittsburgh—Of the Commonwealth System of …, priority 2019, dated 2025)

Key:
TFEB = assay: High content screen measuring TFEB nuclear accumulation (TFEB nuclear/cytosol ratio) in BEAS-2B cells stably expressing TFEB-EGFP; assay type: cell-based, human; conditions: 18 hours incubation
Method: FIG. 3. High content screen assay (384 well) measuring TFEB nuclear accumulation. Approximately 2500 primary and immortalized human bronchial epithelial cells (BEAS-2B) stably expressing TFEB-EGFP in 25 μL of HITEs media with 10% FBS were dispensed into 384 well plate (Black with glass bottom) and incubated for 8 hours. Compound serial dilution (DMEM low glucose media with 2% FBS, 25 μL volume) were prepared using a robotic liquid hander. Compound solutions were then added to the cell plate and incubated for 18 hours. Cells were then fixed with 4% PFA followed by DAPI staining. TFEB localization was imaged on the GFP channel along with the DAPI signal using a Cytation 5 high content imager. Images were processed through Biotek Gen5 software; specifically, the DAPI signal was used as the primary mask to quantify the nuclear TFEB-GFP signal. The cytosolic TFEB-GFP signal was quantified through expanding the primary mask. The TFEB nuclear/cytosol ratios were calculated from nuclear TFEB-GFP signal/cytosol TFEB-GFP signal, which determined the compound efficacy. […] Compound activities (μM) were determined by the minimal compound concentration needed to increase TFEB nuclear/cytosol ratio by 25%. Activity: “−” equals >25 μM; “+” equals between 25 μM and >10 μM; “++” equals between ≤10 μM and >1 μM; and “+++” equals […]. N=4.
(§1) Approximately 2300 primary and immortalized human bronchial epithelial cells (BEAS-2B) stably expressing TFEB-EGFP in 25 μL of HITEs media with 10% FBS were dispensed into 384 well plate (Black with glass bottom) and incubated for 8 hours. Compound serial dilution (DMEM low glucose media with 2% FBS, 25 μL volume) were prepared using a robotic liquid hander. Compound solution were then added to the cell plate and incubated for 18 hours. Cells were then fixed with 4% PFA followed by DAPI staining. TFEB localization was imaged on the GFP channel along with the DAPI signal using a Cytation 5 high content imager. Images were processed through Biotek Gen5 software. Specifically, the DAPI signal was used as the primary mask to quantify the nuclear TFEB-GFP signal. Cytosolic TFEB-GFP signal was quantified through expanding the primary mask. The TFEB nuclear/cytosol ratios were calculated from nuclear TFEB-GFP signal/cytosol TFEB-GFP signal, which determined the compound efficacies.
Compounds efficacies (μM) were determined by the minimal compound concentration needed to increase TFEB nuclear/cytosol ratio by 25%. Activity: “+” equals >25 μM; “++” equals between ≤25 μM and >1 μM; and “+++” equals ≤1 μM.
A high-content imaging screen was conducted using Beas2B cells that stably express GFP-TFEB.

BEAS-2B cells = assay: Toxicity: compound concentration needed to induce greater than 50 percent of cell loss; assay type: cell-based, human; conditions: 18 hours incubation
Method: as §1
Toxicity was determined by determining the compound concentration needed to induce greater than 50 percent of cell loss. For toxicity, cell loss of greater than 50 percent at a concentration that equals or is greater than 25 μM was represented as cell loss of greater than 50 percent at a concentration less than 25 μM and greater than 1 μM was represented as and cell loss of greater than 50 percent at a concentration that equals or is less than 1 μM was represented as “+++.” The assay results for compounds 1-202, 214-248, 332, 333, and 352-402 are shown in Table A.

## c1ccc2c(Nc3ccc4cc[nH]c4c3)nc(-c3ccncc3)nc2c1 [Compound 25]
TFEB
  efficacy (minimal compound concentration needed to increase TFEB nuclear/cytosol ratio by 25%): +++ (“+++” equals ≤1 μM)
BEAS-2B cells
  toxicity (compound concentration needed to induce greater than 50 percent of cell loss): ++ (cell loss of greater than 50 percent at a concentration less than 25 μM and greater than 1 μM was represented as)

## Cn1ccc2cc(Nc3nc(-c4ccncc4)nc4ccccc34)ccc21 [Compound 26]
TFEB
  efficacy (minimal compound concentration needed to increase TFEB nuclear/cytosol ratio by 25%): +++ (“+++” equals ≤1 μM)
BEAS-2B cells
  toxicity (compound concentration needed to induce greater than 50 percent of cell loss): +++ (cell loss of greater than 50 percent at a concentration that equals or is less than 1 μM was represented as “+++.”)

## c1ccc2c(Nc3ccc4scnc4c3)nc(-c3ccncc3)nc2c1 [Compound 27]
TFEB
  efficacy (minimal compound concentration needed to increase TFEB nuclear/cytosol ratio by 25%): +++ (“+++” equals ≤1 μM)
BEAS-2B cells
  toxicity (compound concentration needed to induce greater than 50 percent of cell loss): + (cell loss of greater than 50 percent at a concentration that equals or is greater than 25 μM was represented as)

## Cn1cnc2cc(Nc3nc(-c4ccncc4)nc4ccccc34)ccc21 [Compound 28]
TFEB
  efficacy (minimal compound concentration needed to increase TFEB nuclear/cytosol ratio by 25%): + (“+” equals >25 μM)
BEAS-2B cells
  toxicity (compound concentration needed to induce greater than 50 percent of cell loss): + (cell loss of greater than 50 percent at a concentration that equals or is greater than 25 μM was represented as)

## Cc1nc2cc(Nc3nc(-c4ccncc4)nc4ccccc34)ccc2[nH]1 [Compound 29]
TFEB
  efficacy (minimal compound concentration needed to increase TFEB nuclear/cytosol ratio by 25%): ++ (“++” equals between ≤25 μM and >1 μM)
BEAS-2B cells
  toxicity (compound concentration needed to induce greater than 50 percent of cell loss): + (cell loss of greater than 50 percent at a concentration that equals or is greater than 25 μM was represented as)

## Cc1cc2c(F)c(Nc3nc(-c4ccncc4)nc4ccccc34)ccc2[nH]1 [Compound 30]
TFEB
  efficacy (minimal compound concentration needed to increase TFEB nuclear/cytosol ratio by 25%): +++ (“+++” equals ≤1 μM)
BEAS-2B cells
  toxicity (compound concentration needed to induce greater than 50 percent of cell loss): +++ (cell loss of greater than 50 percent at a concentration that equals or is less than 1 μM was represented as “+++.”)

## Cn1ncc2cc(Nc3nc(-c4ccncc4)nc4ccccc34)ccc21 [Compound 31]
TFEB
  efficacy (minimal compound concentration needed to increase TFEB nuclear/cytosol ratio by 25%): +++ (“+++” equals ≤1 μM)
BEAS-2B cells
  toxicity (compound concentration needed to induce greater than 50 percent of cell loss): +++ (cell loss of greater than 50 percent at a concentration that equals or is less than 1 μM was represented as “+++.”)

## Cn1ccc2ccc(Nc3nc(-c4ccncc4)nc4ccccc34)cc21 [Compound 32]
TFEB
  efficacy (minimal compound concentration needed to increase TFEB nuclear/cytosol ratio by 25%): +++ (“+++” equals ≤1 μM)
BEAS-2B cells
  toxicity (compound concentration needed to induce greater than 50 percent of cell loss): +++ (cell loss of greater than 50 percent at a concentration that equals or is less than 1 μM was represented as “+++.”)

## O=C1NC(=O)c2cc(Nc3nc(-c4ccncc4)nc4ccccc34)ccc21 [Compound 33]
TFEB
  efficacy (minimal compound concentration needed to increase TFEB nuclear/cytosol ratio by 25%): + (“+” equals >25 μM)
BEAS-2B cells
  toxicity (compound concentration needed to induce greater than 50 percent of cell loss): + (cell loss of greater than 50 percent at a concentration that equals or is greater than 25 μM was represented as)

## Cc1nc2ccc(Nc3nc(-c4ccncc4)nc4ccccc34)cc2o1 [Compound 34]
TFEB
  efficacy (minimal compound concentration needed to increase TFEB nuclear/cytosol ratio by 25%): +++ (“+++” equals ≤1 μM)
BEAS-2B cells
  toxicity (compound concentration needed to induce greater than 50 percent of cell loss): + (cell loss of greater than 50 percent at a concentration that equals or is greater than 25 μM was represented as)

## c1ccc2c(Nc3ccc4c(c3)CCN4)nc(-c3ccncc3)nc2c1 [Compound 35]
TFEB
  efficacy (minimal compound concentration needed to increase TFEB nuclear/cytosol ratio by 25%): +++ (“+++” equals ≤1 μM)
BEAS-2B cells
  toxicity (compound concentration needed to induce greater than 50 percent of cell loss): ++ (cell loss of greater than 50 percent at a concentration less than 25 μM and greater than 1 μM was represented as)

## Cc1nc2cc(Nc3nc(-c4ccncc4)nc4ccccc34)ccc2o1 [Compound 37]
TFEB
  efficacy (minimal compound concentration needed to increase TFEB nuclear/cytosol ratio by 25%): ++ (“++” equals between ≤25 μM and >1 μM)
BEAS-2B cells
  toxicity (compound concentration needed to induce greater than 50 percent of cell loss): + (cell loss of greater than 50 percent at a concentration that equals or is greater than 25 μM was represented as)

## N#Cc1c[nH]c2ccc(Nc3nc(-c4ccncc4)nc4ccccc34)cc12 [Compound 38]
TFEB
  efficacy (minimal compound concentration needed to increase TFEB nuclear/cytosol ratio by 25%): + (“+” equals >25 μM)
BEAS-2B cells
  toxicity (compound concentration needed to induce greater than 50 percent of cell loss): + (cell loss of greater than 50 percent at a concentration that equals or is greater than 25 μM was represented as)

## O=c1[nH]c2ccc(Nc3nc(-c4ccncc4)nc4ccccc34)cc2[nH]1 [Compound 39]
TFEB
  efficacy (minimal compound concentration needed to increase TFEB nuclear/cytosol ratio by 25%): + (“+” equals >25 μM)
BEAS-2B cells
  toxicity (compound concentration needed to induce greater than 50 percent of cell loss): + (cell loss of greater than 50 percent at a concentration that equals or is greater than 25 μM was represented as)

## O=C1Cc2cc(Nc3nc(-c4ccncc4)nc4ccccc34)ccc2N1 [Compound 40]
TFEB
  efficacy (minimal compound concentration needed to increase TFEB nuclear/cytosol ratio by 25%): ++ (“++” equals between ≤25 μM and >1 μM)
BEAS-2B cells
  toxicity (compound concentration needed to induce greater than 50 percent of cell loss): + (cell loss of greater than 50 percent at a concentration that equals or is greater than 25 μM was represented as)

## c1ccc2c(Nc3ccc4c(c3)OCCN4)nc(-c3ccncc3)nc2c1 [Compound 41]
TFEB
  efficacy (minimal compound concentration needed to increase TFEB nuclear/cytosol ratio by 25%): ++ (“++” equals between ≤25 μM and >1 μM)
BEAS-2B cells
  toxicity (compound concentration needed to induce greater than 50 percent of cell loss): ++ (cell loss of greater than 50 percent at a concentration less than 25 μM and greater than 1 μM was represented as)

## c1ccc2c(Nc3ccc4c(c3)NCCN4)nc(-c3ccncc3)nc2c1 [Compound 42]
TFEB
  efficacy (minimal compound concentration needed to increase TFEB nuclear/cytosol ratio by 25%): +++ (“+++” equals ≤1 μM)
BEAS-2B cells
  toxicity (compound concentration needed to induce greater than 50 percent of cell loss): + (cell loss of greater than 50 percent at a concentration that equals or is greater than 25 μM was represented as)

## Fc1cccc(Nc2nc(-c3ccncc3)cc3ccccc23)c1 [Compound 43]
TFEB
  efficacy (minimal compound concentration needed to increase TFEB nuclear/cytosol ratio by 25%): ++ (“++” equals between ≤25 μM and >1 μM)
BEAS-2B cells
  toxicity (compound concentration needed to induce greater than 50 percent of cell loss): + (cell loss of greater than 50 percent at a concentration that equals or is greater than 25 μM was represented as)

## c1ccc2c(Nc3ccc4[nH]ncc4c3)nc(N3CCOCC3)nc2c1 [Compound 44]
TFEB
  efficacy (minimal compound concentration needed to increase TFEB nuclear/cytosol ratio by 25%): +++ (“+++” equals ≤1 μM)
BEAS-2B cells
  toxicity (compound concentration needed to induce greater than 50 percent of cell loss): + (cell loss of greater than 50 percent at a concentration that equals or is greater than 25 μM was represented as)

## Cc1cnccc1-c1nc(Nc2ccc3[nH]ncc3c2)c2ccccc2n1 [Compound 45]
TFEB
  efficacy (minimal compound concentration needed to increase TFEB nuclear/cytosol ratio by 25%): + (“+” equals >25 μM)
BEAS-2B cells
  toxicity (compound concentration needed to induce greater than 50 percent of cell loss): + (cell loss of greater than 50 percent at a concentration that equals or is greater than 25 μM was represented as)

## Cc1cc(F)cc(Nc2nc(N3CCOCC3)nc3ccccc23)c1 [Compound 46]
TFEB
  efficacy (minimal compound concentration needed to increase TFEB nuclear/cytosol ratio by 25%): + (“+” equals >25 μM)
BEAS-2B cells
  toxicity (compound concentration needed to induce greater than 50 percent of cell loss): + (cell loss of greater than 50 percent at a concentration that equals or is greater than 25 μM was represented as)
